Experimental findings from patent publication US4680172A, “Devices and methods for treating memory impairment” (Ciba-Geigy Corporation, priority 1985, dated 1987) are described below.

Data set [1] in a line: Transdermal diffusion (flux) of aqueous arecoline through human cadaver skin, Franz diffusion cell. Type of data set: in vitro ADME. The method, then:
In order further to test the permeability of arecoline to human skin, the transdermal diffusion of aqueous arecoline was monitored using human cadaver skin mounted in a Franz diffusion cell; see Current Problems in Dermatology, 7, 58 (1978) and the description of Franz diffusion cells and apparatus published by the Crown Glass Company, a copy of which may be found in the file history of this case. The flux, J, of each solution was calculated from a plot of change in concentration versus time.
The transdermal diffusion of arecoline was studied in several aqueous buffers from pH values of 6.4 to 9.0.
Most of the skin samples were obtained from the back area of human cadavers. There was no systematic study to determine if the choice of donor-side would change the rate; however, it is presumed that the rate will be fastest in portions of the anatomy where the stratum corneum is relatively thin (chest, back, anterior forearm) and slowest where the stratum corneum is thickest (heel of hand, bottom of foot).
Franz diffusion cells utilize the finite dose technique of in vitro drug delivery. Human cadaver skin was mounted in a diffusion chamber where it remined in constant contact with solution on both sides. The stratum corneum was in contact with a thin layer of concentrated drug in solution (donor side). The receiver side contained a constantly stirred, isotonic saline solution maintained at 32° C. Diffusion of the compound was monitored by removing aliquots from the receiver side and analyzing these samples by HPLC.
The human skin used in all experiments was obtained from a medical school. All cadavers were refrigerated at death and excision was performed within 24 hours post-mortem. The skin was first treated with Betadine surgical scrub (Povidone-Iodine solution) and surfactant (the skin was scrubbed if dirty), rinsed with sterile water and then with Betadine rinse solution. The skin was then air-dried and swabbed with mineral oil prior to excision. A dermatome was used for excising the skin to […]. (-350 microns) thickness. Saline solution was used to rinse the excess mineral oil from the skin prior to treatment with Eagle's minimole essential medium (minerals, amino acids and sugars). To this solution, 15% glycerol was added and the skin was allowed to set for two hours. It was then removed from solution, packaged and frozen in liquid N2. The samples, packed in dry ice were shipped in styrofoam containers and kept frozen until use.
For the flux experiments, skin samples were removed from the freezer and thawed immediately prior to use. The samples were examined visually for any tears or holes, then cut into smaller pieces, peeled from the gauze backing and mounted across the diffusion chamber with the stratum corneum side up. The donor-side cap was placed on top and the unit was clamped in place. The receiver-side was filled with a saline solution and stirred. The material in the receiver-side was sterile normal saline solution, which was adjusted to approximate the tonicity of the buffer solution on the donor-side. One ml of the drug solution was pipeted onto the donor-side of the skin and 50 microliter aliguots were withdrawn from the receiver-side at the various time intervals. These samples were injected onto an HPLC column under the aforementioned conditions.
The donor solutions were prepared as 1.0 M (approximately 20% W/V) arecoline HCl or arecoline HBr in a phosphate, citrate, borate buffer adjusted to various pH values. Each flux experiment was repeated three to five times.

Data set [2] is described as follows: Dissociation to the free base in buffer. Type of data set: physicochemical. The settings on record: pH 10 buffer. From the text: (§1) The partion coefficient (K) of a compound between an aqueous phase and mineral oil has been used as an indication of its potential to diffuse across skin. Permeability appears to be optimal when the partition coefficient is 1. Arecoline in pH 10 buffer (99.9% dissociation to the free base) yielded partition coefficients of 0.756 and 0.654 for concentrations of 1.0 M and 0.01 M, respectively. Thus, arecoline in its free base form is expected to have good in vitro transdermal flux.

Data set [3] can be described thus: Stability of arecoline in solution. The settings on record: alkaline buffers. Type of data set: physicochemical.
Data set [4] is described as follows: Partition coefficient (K) between aqueous phase and mineral oil. Type of data set: physicochemical. The following applies: pH 10 buffer.
Source text: as §1

Structures are written as SMILES. Values joined by “and” are separate entries in the source; they are usually repeats but may differ in a detail not shown here. Identical values can stand only once.

Consider `COC(=O)C1=CCCN(C)C1` [arecoline], for which, in data set [1] (aqueous buffers, pH 6.4 to 9.0), the “rate of arecoline diffusion versus pH” value was “increases with increasing pH values”. Further, the “difference in rate between Caucasian and Negro skin” value in data set [1] (lower pH values (below 8)) is “differences were observed between these two skin types”; in data set [1] (pH values of 8 and 9) it was “There does not appear to be any difference in rate”. Further, the Flux is 0.017 mg/cm^2 /hr in data set [1] (pH 6.4 of 1M solution, skin RC (Right Chest), donor N); 0.0545 mg/cm^2 /hr. and 0.0678 mg/cm^2 /hr. and 0.0833 mg/cm^2 /hr in data set [1] (pH 7.0 of 1M solution, skin RB (Right Back), donor C); 0.0101 mg/cm^2 /hr. and 0.0057 mg/cm^2 /hr in data set [1] (pH 7.0 of 1M solution, skin RB (Right Back), donor N); 0.1651 mg/cm^2 /hr. and 0.1486 mg/cm^2 /hr. and 0.2246 mg/cm^2 /hr. and 0.2003 mg/cm^2 /hr in data set [1] (pH 7.5 of 1M solution, skin RB (Right Back), donor C); 0.0383 mg/cm^2 /hr in data set [1] (pH 7.5 of 1M solution, skin RB (Right Back), donor N); 0.4524 mg/cm^2 /hr. and 0.3817 mg/cm^2 /hr in data set [1] (pH 8.0 of 1M solution, skin LB (Left Back), donor C). Besides, the Flux in data set [1] (pH 9.0 of 1M solution, skin LB (Left Back), donor C) is 0.8868 mg/cm^2 /hr. and 0.8154 mg/cm^2 /hr; in data set [1] (pH 9.0 of 1M solution, skin RB (Right Back), donor C), 0.8551 mg/cm^2 /hr. The “Mean Flux” value in data set [1] (pH 6.4 of 1M solution, skin donor N) was 0.017 mg/cm^2 /hr; in data set [1] (pH 7.0 of 1M solution, does not include the Negro skin), 0.069 mg/cm^2 /hr; in data set [1] (pH 7.5 of 1M solution, does not include the Negro skin), 0.185 mg/cm^2 /hr; in data set [1] (pH 8.0 of 1M solution, C and N skin), 0.448 mg/cm^2 /hr; in data set [1] (pH 9.0 of 1M solution, C and N skin), 0.837 mg/cm^2 /hr. The “amount transferred across skin” value in data set [1] (pH 9.0, across 5 cm^2 in 24 hours) is listed as “approximately 85 mgs”. Also, in data set [2], the “dissociation to the free base” value is recorded as 99.9%. Also, in data set [3], the “stability of the free base in solution” value is given as “rapidly hydrolizes”. For the same compound, the results for the “partition coefficient (K)” value in data set [4] (0.01 M) and in data set [4] (1.0 M) were 0.654 and 0.756, respectively.
